The results in this text go back to ChEMBL document CHEMBL1201862, “PubChem BioAssay data set” (2004).

What all share (assay): growth of human tumour cells (NCI), 48 h
For experiment [1], the system named is ACHN.
Experiment [2] relates to HCT-116.
The subject of experiment [3] is HL-60.
Experiment [4] concerns HOP-62.
In experiment [5] the test system is HT-29.
Experiment [6] concerns KM12.
Experiment [7] deals with M14.
Experiment [8] relates to M19-MEL.
The subject of experiment [9] is MDA-N.
Experiment [10] has as its system MOLT-4.
In experiment [11] the test system is NCI-H226.
For experiment [12], the system named is NCI/ADR-RES.
In experiment [13] the test system is OVCAR-8.
In experiment [14] the test system is PC-3.
Experiment [15] has as its system RPMI-8226.
Experiment [16] has as its system SN12C.
The subject of experiment [17] is SR.
The subject of experiment [18] is TK-10.
For experiment [19], the system named is UACC-257.
For experiment [20], the system named is UO-31.

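A five-concentration, 48-hour dose response in 96-well plates underlies each endpoint, interpolated linearly between surrounding concentrations. The concentration for 50% growth inhibition is given as GI50.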 Active and inactive are the calls of the source. No stated cut-off is given here; in the data, active = GI50 up to about 1.1 µM and inactive = higher.

In the case of `CC(=O)Nc1ccc(C(=O)NN2C(=O)C(Cl)C2c2cc(Br)ccc2O)cc1` (stereo not given), the GI50 in [1] is 2.99 µM (inactive); in [2], 3.69 µM (inactive); in experiment [3], 2.71 µM (inactive); in experiment [4] it was 2.2 µM (inactive); in experiment [5] it was 9.46 µM (inactive); in [6] it was 3.44 µM (inactive). Besides, the GI50 in [7] is 4.54 µM (inactive); in experiment [8], 4.12 µM (inactive); in experiment [9] it was 9.16 µM (inactive); in experiment [10] it was 3.37 µM (inactive); in experiment [11] it was 7.36 µM (inactive); in experiment [12], 3.65 µM (inactive). For the same compound, the GI50 in experiment [13] is 6.52 µM (inactive); in [14] it was 3.88 µM (inactive); in experiment [15], 12.1 µM (inactive); in experiment [16], 8.71 µM (inactive); in [17], 3.45 µM (inactive); in experiment [18], 36.1 µM (inactive). The GI50 is 3.93 µM (inactive) in experiment [19] and 3.72 µM (inactive) in experiment [20].
Turning to `O=C[C@@H](CO)O[C@H](C=O)c1c[nH]c(=O)[nH]c1=O`, the GI50 was 81.1 µM (inactive) in experiment [1]; 84.5 µM (inactive) in experiment [2]; 22.3 µM (inactive) in [3]; 59 µM (inactive) in experiment [4]; 107 µM (inactive) in [5]; 93.3 µM (inactive) in [6]. The GI50 was 126 µM (inactive) in experiment [7]; 104 µM (inactive) in [8]; 70.8 µM (inactive) in experiment [9]; 47.8 µM (inactive) in experiment [10]; 101 µM (inactive) in [11]; 103 µM (inactive) in [12]. In addition, the GI50 was 66.1 µM (inactive) in experiment [13]; 89.1 µM (inactive) in [14]; 53.8 µM (inactive) in [15]; 83 µM (inactive) in experiment [16]; 35.6 µM (inactive) in [17]; 104 µM (inactive) in experiment [18]. Besides, the GI50 is 104 µM (inactive) in experiment [19] and 88.5 µM (inactive) in [20].
Turning to `CCc1cccc(CC)c1NC(=O)C(C#N)C1=C(Cl)C(=O)c2ccccc2C1=O` (stereo not given), the GI50 in experiment [1] is 16.4 µM (inactive); in [2] it was 15.9 µM (inactive); in [3], 1.3 µM (inactive); in [4], 14.5 µM (inactive); in experiment [5] it was 19.9 µM (inactive); in experiment [6], 18.9 µM (inactive). The GI50 is 16.8 µM (inactive) in [7]; 19.1 µM (inactive) in [8]; 16.7 µM (inactive) in [9]; 1.53 µM (inactive) in experiment [10]; 15 µM (inactive) in experiment [11]; 19.8 µM (inactive) in experiment [13]. Further, the GI50 in [14] is 13 µM (inactive); in [15], 4.56 µM (inactive); in experiment [16], 16.7 µM (inactive); in experiment [17], 1.2 µM (inactive); in [18], 21.2 µM (inactive); in [19], 17.4 µM (inactive). In addition, in [20], the GI50 was 11.8 µM (inactive).
Take `Cc1ccccc1/N=C/c1ccc(N(CCC#N)S(=O)(=O)c2ccccc2)cc1`: the GI50 in experiment [1] is > 100 µM (inactive); in experiment [2], > 100 µM (inactive); in experiment [3] it was 32.4 µM (inactive); in experiment [4], > 100 µM (inactive); in [5], > 100 µM (inactive); in experiment [6] it was > 100 µM (inactive). Further, the GI50 in experiment [7], in experiment [8], in [10], in experiment [11], in experiment [13] and in experiment [15] was > 100 µM (inactive) throughout. In addition, the GI50 in experiment [16], in experiment [17], in experiment [18], in [19] and in experiment [20] was > 100 µM (inactive) in each case.
In the case of `CN(C)CC1CCC(=C2CCCC2)C1=O` (stereo not given), the GI50 is 8.18 µM (inactive) in [1]; 13.6 µM (inactive) in [2]; 3.51 µM (inactive) in [3]; 14.3 µM (inactive) in experiment [4]; 12.5 µM (inactive) in [5]; 10.9 µM (inactive) in [6]. Further, the GI50 in experiment [7] is 8.3 µM (inactive); in experiment [8] it was 16.8 µM (inactive); in experiment [10] it was 2.76 µM (inactive); in experiment [11] it was 17.9 µM (inactive); in experiment [13], 20 µM (inactive); in experiment [15] it was 0.859 µM (active). For the same compound, the GI50 in experiment [16] was 10.7 µM (inactive); in [17], 4.47 µM (inactive); in [18] it was 11.5 µM (inactive); in [19] it was 17.4 µM (inactive); in experiment [20], 18.3 µM (inactive).
With `COc1ccc2c(c1)[n+]([O-])c(C(=O)CC(=O)C(=O)Nc1cccc(Cl)c1C)c(C)[n+]2[O-]`, the GI50 in [1] was > 100 µM (inactive); in experiment [2], > 100 µM (inactive); in experiment [3], 44.5 µM (inactive); in experiment [4] it was > 100 µM (inactive); in experiment [5] it was 83 µM (inactive); in experiment [6], > 100 µM (inactive). For the same compound, the GI50 in experiment [7] is > 100 µM (inactive); in [8] it was 42.9 µM (inactive); in [10], 49.4 µM (inactive); in experiment [11] it was > 100 µM (inactive); in [13], > 100 µM (inactive); in [15] it was 83.6 µM (inactive). Further, the GI50 was > 100 µM (inactive) in [16]; 34 µM (inactive) in [17]; > 100 µM (inactive) in experiment [18]; > 100 µM (inactive) in [19]; > 100 µM (inactive) in [20].
Consider `CCN(CC)CCCC(C)Nc1c2ccc(Cl)cc2nc2ccc(OC)cc12` (stereo not given), for which the GI50 in [1] was 2.42 µM (inactive); in experiment [2] it was 0.61 µM (active); in experiment [3], 2.03 µM (inactive); in [4], 2.22 µM (inactive); in [5], 1.03 µM (active); in experiment [6], 1.63 µM (inactive). Moreover, the GI50 was 1.81 µM (inactive) in experiment [7]; 1.76 µM (inactive) in experiment [8]; 1.78 µM (inactive) in [9]; 0.518 µM (active) in [10]; 4 µM (inactive) in experiment [11]; 1.86 µM (inactive) in [12]. For the same compound, the GI50 in experiment [13] was 1.05 µM (active); in [14], 1.78 µM (inactive); in [15], 2.05 µM (inactive); in [16] it was 2.32 µM (inactive); in experiment [17], 0.895 µM (active); in experiment [18], 3.13 µM (inactive). Further, the figures for the GI50 in [19] and in experiment [20] were 1.85 µM (inactive) and 2.08 µM (inactive), respectively.
With `Cc1ccc2ccc3ccc(C)nc3c2n1` [NEOCUPROINE], the GI50 in experiment [1] is > 100 µM (inactive); in experiment [2], 0.349 µM (active); in experiment [3], 0.353 µM (active); in experiment [4] it was 4.68 µM (inactive); in experiment [5], 0.908 µM (active); in experiment [6] it was 12.5 µM (inactive). Also, the GI50 was > 22.2 µM (inactive) in experiment [7]; 3.44 µM (inactive) in experiment [8]; > 100 µM (inactive) in [9]; 1.34 µM (inactive) in experiment [10]; 33.4 µM (inactive) in experiment [11]; > 100 µM (inactive) in experiment [12]. Further, the GI50 in experiment [13] is > 26.9 µM (inactive); in experiment [14], 2.1 µM (inactive); in [15], > 100 µM (inactive); in experiment [16] it was > 100 µM (inactive); in experiment [17], 0.728 µM (active); in experiment [18] it was > 100 µM (inactive). In addition, the GI50 in experiment [19] was 1.86 µM (inactive); in experiment [20], > 76.2 µM (inactive).
